Assay results: ChEMBL document CHEMBL1157622, “Synthesis and antiproliferative evaluation of certain indolo[3,2-c]quinoline derivatives” (Bioorg Med Chem, 2010)
Calls of active or inactive are those of the source. The rule behind the calls is not given here.

Tests used:
HeLa [1] = test: Antiproliferative activity against human HeLa cells by MTT assay; assay type: functional, cell-based
[2] = Antiproliferative activity against human SKHep cells by MTT assay; assay type: functional, cell-based
PC-3 [3] = test: Antiproliferative activity against human PC3 cells by MTT assay; assay type: functional, cell-based
A549 = test: Antiproliferative activity against human A549 cells by MTT assay; assay type: functional, cell-based
Detroit 551 = test: Antiproliferative activity against human Detroit 551 cells by MTT assay; assay type: cell-based
PC-3 [4] = test: Cell cycle arrest in human PC3 cells by accumulation at G2/M phase at 0.3 uM after 48 hrs by propidium iodide staining-based flow cytometry (Rvb=19.4%); assay type: functional
PC-3 [5] = test: Induction of apoptosis in human PC3 cells assessed as caspase 3 activation at 0.1 uM after 48 hrs by Western blot; assay type: functional, cell-based
HeLa [6] = test: Antiproliferative activity against human HeLa cells assessed as reduction in colony number after 48 hrs by clonogenic assay; assay type: functional, cell-based
PC-3 [7] = test: Cell cycle arrest in human PC3 cells by accumulation at S phase at 0.3 uM after 48 hrs by propidium iodide staining-based flow cytometry (Rvb=11.2%); assay type: functional
PC-3 [8] = test: Cell cycle arrest in human PC3 cells by accumulation at subG1 phase at 0.3 uM after 48 hrs by propidium iodide staining-based flow cytometry (Rvb=0.8%); assay type: functional
[9] = target: DNA topoisomerase 2-alpha (Homo sapiens) (UniProt P11388); test: Inhibition of DNA topoisomerase 2-mediated unwinding of supercoiled pBR322 DNA
Sequence of DNA topoisomerase 2-alpha (Homo sapiens) (P11388 whole entry): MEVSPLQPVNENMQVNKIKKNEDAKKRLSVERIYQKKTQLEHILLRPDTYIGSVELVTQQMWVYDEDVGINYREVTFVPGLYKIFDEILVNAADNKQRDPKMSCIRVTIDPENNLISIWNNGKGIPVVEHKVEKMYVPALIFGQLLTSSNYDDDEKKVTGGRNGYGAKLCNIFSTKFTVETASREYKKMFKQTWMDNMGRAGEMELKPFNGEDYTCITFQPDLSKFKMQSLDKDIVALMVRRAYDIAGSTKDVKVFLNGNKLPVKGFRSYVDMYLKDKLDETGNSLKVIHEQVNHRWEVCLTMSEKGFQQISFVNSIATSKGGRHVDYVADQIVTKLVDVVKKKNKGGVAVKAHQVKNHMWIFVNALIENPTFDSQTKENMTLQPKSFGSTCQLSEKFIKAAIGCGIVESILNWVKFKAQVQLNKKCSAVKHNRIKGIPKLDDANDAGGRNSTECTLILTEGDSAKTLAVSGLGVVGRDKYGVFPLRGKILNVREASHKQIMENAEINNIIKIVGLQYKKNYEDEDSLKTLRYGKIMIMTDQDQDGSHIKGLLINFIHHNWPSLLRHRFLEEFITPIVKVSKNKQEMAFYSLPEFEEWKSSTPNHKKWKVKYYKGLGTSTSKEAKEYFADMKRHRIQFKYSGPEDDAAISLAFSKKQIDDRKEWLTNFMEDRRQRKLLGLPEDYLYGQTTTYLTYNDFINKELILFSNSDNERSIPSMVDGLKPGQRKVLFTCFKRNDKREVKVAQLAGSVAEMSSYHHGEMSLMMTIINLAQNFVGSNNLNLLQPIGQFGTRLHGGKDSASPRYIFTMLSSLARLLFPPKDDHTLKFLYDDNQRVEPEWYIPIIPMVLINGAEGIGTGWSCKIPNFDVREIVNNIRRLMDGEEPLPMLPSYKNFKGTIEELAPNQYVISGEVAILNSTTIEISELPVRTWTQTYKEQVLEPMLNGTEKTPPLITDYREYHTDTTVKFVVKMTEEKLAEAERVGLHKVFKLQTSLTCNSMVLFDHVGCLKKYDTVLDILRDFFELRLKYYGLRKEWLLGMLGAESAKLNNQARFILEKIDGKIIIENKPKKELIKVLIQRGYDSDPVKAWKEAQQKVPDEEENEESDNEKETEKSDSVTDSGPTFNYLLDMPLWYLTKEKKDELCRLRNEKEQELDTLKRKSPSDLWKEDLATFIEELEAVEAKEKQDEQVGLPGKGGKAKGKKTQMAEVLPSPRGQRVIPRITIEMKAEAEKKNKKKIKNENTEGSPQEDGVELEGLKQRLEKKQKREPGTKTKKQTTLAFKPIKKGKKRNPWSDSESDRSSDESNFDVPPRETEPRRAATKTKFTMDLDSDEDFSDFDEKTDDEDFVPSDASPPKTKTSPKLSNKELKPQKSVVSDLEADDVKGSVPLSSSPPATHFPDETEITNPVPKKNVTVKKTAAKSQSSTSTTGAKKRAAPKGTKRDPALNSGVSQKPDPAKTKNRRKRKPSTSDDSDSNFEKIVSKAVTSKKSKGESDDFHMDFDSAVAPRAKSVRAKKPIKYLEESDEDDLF

PC-3 [10] = test: Cell cycle arrest in human PC3 cells by accumulation at G2/M phase at 0.1 uM after 48 hrs by propidium iodide staining-based flow cytometry (Rvb=19.4%); assay type: functional
PC-3 [11] = test: Induction of apoptosis in human PC3 cells assessed as PARP cleavage at 0.1 uM after 48 hrs by Western blot; assay type: functional, cell-based
[12] = target: T1, DNA topoisomerase 1 (Homo sapiens) (UniProt P11387); test: Inhibition of topoisomerase 1-mediated unwinding of supercoiled plasmid DNA at 0.1 to 1.0 uM
T1 sequence (whole entry): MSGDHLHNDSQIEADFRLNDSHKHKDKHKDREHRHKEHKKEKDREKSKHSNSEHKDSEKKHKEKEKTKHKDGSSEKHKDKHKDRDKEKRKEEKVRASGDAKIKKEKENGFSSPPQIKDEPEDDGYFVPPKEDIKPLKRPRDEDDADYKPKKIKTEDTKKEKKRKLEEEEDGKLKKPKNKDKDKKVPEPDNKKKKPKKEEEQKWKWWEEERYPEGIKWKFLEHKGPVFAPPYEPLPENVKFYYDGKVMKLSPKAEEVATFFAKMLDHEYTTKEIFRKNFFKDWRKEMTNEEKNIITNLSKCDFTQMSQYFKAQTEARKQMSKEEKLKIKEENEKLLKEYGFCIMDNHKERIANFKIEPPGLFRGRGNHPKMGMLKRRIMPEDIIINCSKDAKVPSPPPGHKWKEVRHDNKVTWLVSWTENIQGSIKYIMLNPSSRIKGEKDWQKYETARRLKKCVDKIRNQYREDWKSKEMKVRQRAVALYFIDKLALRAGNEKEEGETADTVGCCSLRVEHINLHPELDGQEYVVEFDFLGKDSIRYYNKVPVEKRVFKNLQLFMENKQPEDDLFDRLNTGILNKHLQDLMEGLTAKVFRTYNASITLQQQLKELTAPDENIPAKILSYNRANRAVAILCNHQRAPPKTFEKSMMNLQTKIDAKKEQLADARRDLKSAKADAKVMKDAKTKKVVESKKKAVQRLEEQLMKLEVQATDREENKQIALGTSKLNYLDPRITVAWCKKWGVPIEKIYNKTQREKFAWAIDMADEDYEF

PC-3 [13] = test: Induction of apoptosis in human PC3 cells assessed as gammaH2AX phosphorylation mediated DNA damage at 0.1 uM after 48 hrs by Western blot; assay type: functional, cell-based
PC-3 [14] = test: Cell cycle arrest in human PC3 cells by accumulation at G1 phase at 0.3 uM after 48 hrs by propidium iodide staining-based flow cytometry (Rvb=68.4%); assay type: functional
PC-3 [15] = test: Cell cycle arrest in human PC3 cells by accumulation at S phase at 0.1 uM after 48 hrs by propidium iodide staining-based flow cytometry (Rvb=11.2%); assay type: functional
PC-3 [16] = test: Cell cycle arrest in human PC3 cells by accumulation at subG1 phase at 0.1 uM after 48 hrs by propidium iodide staining-based flow cytometry (Rvb=0.8%); assay type: functional
[17] = target: T1, DNA topoisomerase 1 (Homo sapiens); test: Inhibition of topoisomerase 1-mediated unwinding of supercoiled plasmid DNA at 10 uM
HeLa [18] = test: Antiproliferative activity against human HeLa cells at 0.3 to 1.0 uM after 48 hrs by MTT assay; assay type: functional
PC-3 [19] = test: Cell cycle arrest in human PC3 cells by accumulation at G1 phase at 0.1 uM after 48 hrs by propidium iodide staining-based flow cytometry (Rvb=68.4%); assay type: functional
HeLa [20] = test: Antiproliferative activity against human HeLa cells assessed as reduction in colony size after 48 hrs by clonogenic assay; assay type: functional, cell-based

Structure (SMILES)	IC50 (HeLa [1]) [nM]	IC50 [2] [nM]	IC50 (PC-3 [3]) [nM]	IC50 (A549) [nM]	IC50 (Detroit 551) [nM]	further results
OCCNCCNc1nc2ccc(F)cc2c2[nH]c3ccccc3c12	1490	1310	6510	930	–	–
COc1ccc(Nc2nc3ccccc3c3[nH]c4ccccc4c23)cc1	11400	7780	21000	10900	–	–
NCCNCCNc1nc2ccccc2c2[nH]c3ccccc3c12	650	2170	7980	1030	3880	–
Oc1ccc(CCNc2nc3ccc(F)cc3c3[nH]c4ccccc4c23)cc1	1330	7780	6320	9190	–	–
NCCCCCCCNc1nc2ccccc2c2[nH]c3ccccc3c12	2670	2540	6250	2230	–	–
c1ccc(Nc2nc3ccccc3c3[nH]c4ccccc4c23)cc1	> 30000	> 30000	> 30000	> 30000	–	–
CN(C)CCCNc1nc2ccccc2c2[nH]c3ccccc3c12	850	790	3650	500	2180	–
Oc1ccc(CCNc2nc3ccccc3c3[nH]c4ccccc4c23)cc1	590	5240	8940	5740	4300	–
Oc1ccccc1Nc1nc2ccccc2c2[nH]c3ccccc3c12	4690	21900	> 30000	17700	–	–
OCCNCCNc1nc2ccccc2c2[nH]c3ccccc3c12	740	720	5810	700	1740	–
CN(CCCNc1nc2ccccc2c2[nH]c3ccccc3c12)CCCNc1nc2ccccc2c2[nH]c3ccccc3c12	890	280	2010	430	2140	–
NCCCCCCNc1nc2ccccc2c2[nH]c3ccccc3c12	72	2510	2550	84	–	–
Oc1ccc(Nc2nc3ccccc3c3[nH]c4ccccc4c23)cc1	1540	5700	5430	3870	25400	–
c1ccc2c(c1)nc(NCCCCCCNc1nc3ccccc3c3[nH]c4ccccc4c13)c1c3ccccc3[nH]c21	310	1470	590	500	–	–
c1ccc2c(c1)nc(NCCCCCCCNc1nc3ccccc3c3[nH]c4ccccc4c13)c1c3ccccc3[nH]c21	1190	1610	6560	1190	–	–
Fc1ccc2nc(NCCN3CCOCC3)c3c4ccccc4[nH]c3c2c1	4320	5290	6840	6730	–	–
OCCNc1nc2ccccc2c2[nH]c3ccccc3c12	620	1020	5650	990	3150	–
c1ccc2c(c1)nc(NCCN1CCNCC1)c1c3ccccc3[nH]c21	680	380	1770	530	2600	–
COc1ccc(CCNc2nc3ccccc3c3[nH]c4ccccc4c23)cc1OC	520	5830	8980	5390	19300	–
COc1cccc2c1C(=O)c1c(O)c3c(c(O)c1C2=O)C[C@@](O)(C(=O)CO)C[C@@H]3O[C@H]1C[C@H](N)[C@H](O)[C@H](C)O1 [DOXORUBICIN]	330	–	1760	–	–	–
c1ccc2c(c1)nc(NCCN1CCOCC1)c1c3ccccc3[nH]c21	870	1290	2840	1130	–	–
Fc1ccc2nc(NCCN3CCNCC3)c3c4ccccc4[nH]c3c2c1	5350	2670	12300	6200	–	–
Cl.c1ccc2c(c1)nc(NCCCNCCCNc1nc3ccccc3c3[nH]c4ccccc4c13)c1c3ccccc3[nH]c21	68	90	80	110	1980	Activity (PC-3 [4]): 8.7%; Activity (PC-3 [5]): Active; Activity (HeLa [6]): Dose-dependent effect; Activity (PC-3 [7]): 2.7%; Activity (PC-3 [8]): 72.6%; inhibition [9]: Dose-dependent effect; Activity (PC-3 [10]): 24.1%; Activity (PC-3 [11]): Active; inhibition [12]: inactive; Activity (PC-3 [13]): Active; Activity (PC-3 [14]): 15.8%; Activity (PC-3 [15]): 4.5%; Activity (PC-3 [16]): 30.6%; inhibition [17]: Active; inhibition (INH) (HeLa [18]): 95%; Activity (PC-3 [19]): 40.3%; Activity (HeLa [20]): Dose-dependent effect
CN(C)CCNc1nc2ccccc2c2[nH]c3ccccc3c12	610	1600	5790	830	2210	–
Oc1cccc(Nc2nc3ccccc3c3[nH]c4ccccc4c23)c1	10300	7230	18400	10400	42500	–
Oc1ccc(CCNc2nc3ccccc3c3[nH]c4ccccc4c23)cc1O	3770	6660	15200	10300	–	–
